“Also recorded” adds a separate entry of the source.
Tested on: house male Sprague Dawley (SD) rats
Test: In vivo urinary phosphate excretion in rats fed test substance mixed in Purina 5002 diet
Set-up: species or system rat
Settings: for % Urinary Phosphate Relative to that of Control Animals / Phosphate Excretion: Table 1; for Phosphate Excretion: urine collected on days 5 and 6; for amounts of urinary phosphate compared with control (in words): rats on zinc therapy vs control which did not go through the zinc therapy
Description: House male Sprague Dawley (SD) rats were used for the experiments.
To establish baseline phosphorus excretion, the rats were placed in metabolic cages for 48 hours. Their urine was collected and its phosphorus content analyzed with a Hitachi analyzer to determine phosphorus excretion in mg/day. Any rats with outlying values were excluded; and the remainder of the rats was distributed into groups.
Cellulose at 0.5% by weight was used as a negative control. For each rat, 200 g of diet was prepared.
Each rat was weighed and placed on the standard diet. After 4 days the standard diet was replaced with the treatment diet (or control diet for the control group). On days 5 and 6, urine samples from the rats at 24 hours (±30 minutes) were collected and analyzed. The test rats were again weighed, and any weight loss or gain was calculated. Any remaining food was also weighed to calculate the amount of food consumed per day. A change in phosphorus excretion relative to baseline and cellulose negative control was calculated using Excel program.
A change in phosphorus excretion relative to baseline and cellulose negative control was calculated using Excel program.

[1] = 0.5% of diet by weight in Purina 5002, cellulose 0.5% negative control
[2] = 0.5% of diet by weight in Purina 5002

O=C[O-].O=C[O-].[Zn+2] [Zinc Formate]
% Urinary Phosphate Relative to that of Control Animals [1]: 48.5%
Phosphate Excretion [2]: 10.1 mg/day
amounts of urinary phosphate compared with control (in words): much lower

O=C([O-])C(=O)[O-].[Zn+2] [Zinc Oxalate]
% Urinary Phosphate Relative to that of Control Animals [1]: 78.0%
Phosphate Excretion [2]: 16.2 mg/day
amounts of urinary phosphate compared with control (in words): much lower

CC(=O)[O-].CC(=O)[O-].O.O.[Zn+2] [Zinc acetate dehydrate]
% Urinary Phosphate Relative to that of Control Animals [1]: 56.7%
Phosphate Excretion [2]: 9.4 mg/day
amounts of urinary phosphate compared with control (in words): much lower
amounts of urinary phosphate compared with control (in words) (listed as zinc acetate dihydrate): substantially reduce

[Cl-].[Cl-].[Zn+2] [Zinc chloride]
% Urinary Phosphate Relative to that of Control Animals [1]: 50.6%
Phosphate Excretion [2]: 8.8 mg/day
amounts of urinary phosphate compared with control (in words): much lower; also recorded: substantially reduce

O.O.O=C([O-])CC(O)(CC(=O)[O-])C(=O)[O-].O=C([O-])CC(O)(CC(=O)[O-])C(=O)[O-].[Zn+2].[Zn+2].[Zn+2] [Zinc citrate dihydrate]
% Urinary Phosphate Relative to that of Control Animals [1]: 70.8%
Phosphate Excretion [2]: 12 mg/day
amounts of urinary phosphate compared with control (in words) (citrate dihydrate): much lower; also recorded: substantially reduce

NCC(=O)[O-].NCC(=O)[O-].O.[Zn+2] [Zinc glycinate monohydrate]
% Urinary Phosphate Relative to that of Control Animals [1]: 79.7%
Phosphate Excretion [2]: 15.5 mg/day
amounts of urinary phosphate compared with control (in words) (monohydrate): much lower; also recorded: substantially reduce

[O]=[Zn] [Zinc oxide]
% Urinary Phosphate Relative to that of Control Animals [1]: 18.4%
Phosphate Excretion [2]: 3.2 mg/day
amounts of urinary phosphate compared with control (in words): much lower; also recorded: substantially reduce

[O-2].[Zn+2] [zinc oxide, nanopowder, zinc oxide]
% Urinary Phosphate Relative to that of Control Animals (0.25% of diet by weight in Purina 5002, cellulose negative control): 50.7%
Phosphate Excretion (0.25% of diet by weight in Purina 5002): 9.7 mg/day

Reference: patent US20080014288A1, “Zinc-containing treatments for hyperphosphatemia” (priority 2004, published 2008)
